Source: patent US5616716A, “(3-(5-ethoxypyridin)yl)-alkenyl 1 amine compounds” (priority 1996, dated 1997)

Columns and labels:
nicotinic receptors = experiment: Binding of compounds to relevant receptor sites (inhibition of L-[^3 H]nicotine binding, rat brain membranes); parameters: species or system rat (Sprague-Dawley); details: inhibition of L-[^3 H]nicotine (10 nM) binding
Experimental: Rats (Sprague-Dawley) were maintained on a 12 hour light/dark cycle and were allowed free access to water and food supplied by Wayne Lab Blox, Madison, Wis. Animals used in the present studies weighed 200 to 250 g. Brain membrane preparations were obtained from brain tissue of either males or females.
Rats were killed by decapitation following anesthesia with 70% CO2. Brains were removed and placed on an ice-cold platform.
The incubation buffer was Krebs-Ringers HEPES containing 200 mM TRIS buffer, pH 7.5. The binding reaction was terminated by filtration of the protein containing bound ligand onto glass fiber filters (Micro Filtration Systems) that had been soaked in buffer containing 0.5 percent polyethyleneimine. Filtration vacuum was -50 to -100 torr. Each filter was washed five times with 3 ml of ice-cold buffer. […] Nonspecific binding was determined by inclusion of 10 uM nonradioactive nicotine in the incubations.
The inhibition of L-[^3 H]nicotine binding by test compounds was determined by including one of eight different concentrations of the test compound in the incubation.

[1] = target: CNS nicotinic receptors (thalamic synaptosomes); experiment: Determination of ion flux from thalamic synaptosomes (^86 Rb+ efflux; receptor activation); format: biochemical, rat; details: for Receptor Activation Emax: percent of Emax for tetramethylammonium
Experimental: Determination of ion flux from thalamic synaptosomes
Rat brains were dissected and midbrain (thalamus and mesencephalon) removed. The midbrain was then placed into a tube on ice, homogenized, and centrifuged at 2800 rpm for 10 minutes. The supernatant was collected and centrifuged for another 20 minutes at 9650 rpm The resulting pellet was resuspended by trituration in 700 ul ice cold perfusion buffer. Synaptosomes were then loaded with ^86 Rb+ Ion efflux was determined using the methods of Marks et al., J. Pharmacol. Exp. Ther., Vol. 264, pp. 427-436 (1993). Total efflux was determined by subtraction of basal release from release at stimulation (total peak release). The ratio of the peak to baseline (Rp) was calculated for each concentration. A tetramethylammonium control (i.e., a full agonist to the receptor of interest) is used in each assay to compare each agonist's ability to stimulate rubidium efflux to the control. Emax values are reported as a percent of Emax for tetramethylammonium.

[2] = system: dopamine release from striatal synaptosomes; experiment: Determination of dopamine release (striatal synaptosomes); format: biochemical, rat (Sprague-Dawley); details: rat striatal synaptosomes; for Dopamine Release Emax: percentage of release obtained with (S)-(-)-nicotine
Experimental: Determination of Dopamine Release
Dopamine release was measured by preparing synaptosomes from the striatal area of rat brain obtained from Sprague-Dawley rats generally according to the procedures set forth by Nagy et al. J. Neurochem., Vol. 43, pp. 1114-1123 (1984). Striata from 4 rats were homogenized in 2 ml of 0.32M sucrose buffered with 5 mM HEPES (pH 7.5), using a glass-Teflon tissue grinder. The homogenate was diluted to 5 ml with additional homogenization solution and centrifuged at 1,000 ×g for 10 min. This procedure was repeated on the new pellet and the resulting supernatant was centrifuged at 12,000 ×g for 20 min. A 3 layer discontinuous Percoll gradient consisting of 16 percent, 10 percent and 7.5 percent Percoil in HEPES-buffered sucrose was made with the final pellet dispersed in the top layer. After centrifugation at 15,000 ×g for 20 min., the synaptosomes were recovered above the 16 percent layer with a Pasteur pipette, diluted with 8 ml of perfusion buffer (128 mM NaCl, 2.4 mM KCl, 3.2 mM CaCl2, 1.2 KH2 PO4, 1.2 mM MgSO4, 25 mM HEPES pH 7.4, 10 mM dextrose, 1 mM ascorbate, 0.01 mM pargyline), and centrifuged at 15,000 ×g for 20 min. The new pellet was collected and re-suspended in perfusion buffer. The synaptosome suspension was incubated for 10 min. at 37 ° C. [^3 H]-Dopamine (Amersham, 40-60 Ci/mmol) was added to the suspension to give a final concentration of 0.1 uM, and the suspension was incubated for another 5 min. Using this method, 30 to 90 percent of the dopamine was taken up into the synaptosomes, as determined by scintillation counting following filtration through glass fiber filters soaked with 0.5 percent polyethyleneimine. A continuous perfusion system was used to monitor release following exposure to each ligand. Synaptosomes were loaded onto glass fiber filters (Gelman type A/E). Perfusion buffer was dripped onto the filters (0.2-0.3 ml/min.) and pulled through the filters with a peristaltic pump. Synaptosomes were washed with perfusion buffer for a minimum of 20 min. before addition of the ligand. After the addition of 0.2 ml of a solution containing various concentrations of ligand, the perfusate was collected into scintillation vials at 1 min. intervals and the dopamine released was quantified by scintillation counting. Peaks of radioactivity released above background were summed and the average basal release during that time was subtracted from the total. Release was expressed as a percentage of release obtained with an equal concentration of(S)--(-)--nicotine.

[3] = target: T1, ganglionic-type neuronal nicotinic receptors (PC12) (Rattus norvegicus, UniProt P04757+P12392); experiment: cell-based; details: PC12, ^86 Rb^+ efflux, percentage of maximal activation induced by (S)-(-)-nicotine
T1 construct: Ganglionic effects were established on the rat pheochromocytoma clonal line PC12; endogenous in cells; host or cells: PC12 (rat pheochromocytoma)
Text: Determination of Interaction with Ganglia
Ganglionic effects were established on the rat pheochromocytoma clonal line PC12, which is a continuous clonal cell line of neural crest origin derived from a tumor of the rat adrenal medulla expressing ganglionic-typeneuronal nicotinic receptors (see Whiting et al., Nature, Vol. 327, pp. 515-518 (1987); Lukas, J. Pharmacol. Exp. Ther., Vol. 251, pp. 175-182 (1989); Whiting et al., Mol. Brain Res., Vol. 10, pp. 61-70 (1990)). Discussion concerning the heterogeneity of nicotinic receptors subtypes is set forth in Lukas et al. Internatl. Review Neurobiol., Vol. 34, pp. 25-130 (1992). Acetylcholine nicotinic receptors expressed in rat ganglia share a very high degree of homology with their human counterparts. See, Fomasari et al., Neurosci. Lett., Vol. 111, pp. 351-356 (1990) and Chini et al., Proc. Natl. Acad. Sci. USA, Vol. 89, pp. 1572-1576 (1992 ). Both clonal cell lines described above were maintained in proliferative growth phase according to routine protocols (Bencherif et al., Mol. Cell, Neurosci., Vol. 2, pp. 52-65, (1991 ) and Bencheft et al., J. Pharmacol. Exp. Ther., Vol. 257, pp. 946-953 (1991)). Intact cells on dishes were used for functional studies. Routinely, sample aliquots were reserved for determination of protein concentration using the method of Bradford, Anal. Biochem., Vol. 72, pp. 248-254 (1976) with bovine serum albumin as the standard.
(§1) Nicotinic acetylcholine receptor (nAChR) function was assayed using ^86 Rb^+ efflux according to a method described by Lukas et al., Anal. Biochem., Vol. 175, pp. 212-218 (1.988). […] The medium was removed and ^86 Rb^+ was quantitated using Cerenkov detection (see Lukas et al., Anal. Biochem., Vol. 175, pp. 212-218 (1988)). Specific ion efflux was determined as the difference in isotope efflux between total and non-specific efflux samples. Dose-response curves were plotted and the concentration resulting in half maximal activation of specific ion flux through nicotinic receptors determined for human muscle and rat ganglionic preparations (EC50).

[4] = target: T2, muscle-like nicotinic receptors (TE671/RD) (Homo sapiens, UniProt P02708+P07510+Q07001); experiment: cell-based; details: ^86 Rb^+ efflux, read-out: Muscle Effect EC50
T2 construct: these cells express muscle-like nicotinic receptors; endogenous in cells; host or cells: TE671/RD (human embryonal rhabdomyosarcoma)
Text: Determination of Interaction with Muscle
Human muscle activation was established on the human clonal line TE671/RD which is derived from an embryonal rhabdomyosarcoma (Stratton et al., Carcinogen, Vol. 10, pp. 899-905 (1989)). As evidenced through pharmacological (Lukas, J. Pharmacol. Exp. Ther., Vol. 251, pp. 175-182 (1989)), electrophysiological (Oswald et al., Neurosci. Lett., Vol. 96, pp. 207-212 (1989)), and molecular biological studies (Luther et al., J. Neurosci., Vol. 9, pp. 1082-1096 (1989)) these cells express muscle-like nicotinic receptors. Nicotinic acetylcholine receptor (nAChR) function was assayed using ^86 Rb^+ efflux according to a method described by Lukas et al., Anal. Biochem., Vol. 175, pp. 212-218 (1988). Dose-response curves were plotted and the concentration resulting in half maximal activation of specific ion flux through nicotinic receptors determined for human muscle and rat ganglionic preparations (EC50).
as §1, with “Dose-response curves were plotted and the concentration resulting in half maximal activation of specific ion flux through nicotinic receptors determined for human muscle and rat ganglionic preparations (EC50).” left out

T1 sequence (P04757 26-499): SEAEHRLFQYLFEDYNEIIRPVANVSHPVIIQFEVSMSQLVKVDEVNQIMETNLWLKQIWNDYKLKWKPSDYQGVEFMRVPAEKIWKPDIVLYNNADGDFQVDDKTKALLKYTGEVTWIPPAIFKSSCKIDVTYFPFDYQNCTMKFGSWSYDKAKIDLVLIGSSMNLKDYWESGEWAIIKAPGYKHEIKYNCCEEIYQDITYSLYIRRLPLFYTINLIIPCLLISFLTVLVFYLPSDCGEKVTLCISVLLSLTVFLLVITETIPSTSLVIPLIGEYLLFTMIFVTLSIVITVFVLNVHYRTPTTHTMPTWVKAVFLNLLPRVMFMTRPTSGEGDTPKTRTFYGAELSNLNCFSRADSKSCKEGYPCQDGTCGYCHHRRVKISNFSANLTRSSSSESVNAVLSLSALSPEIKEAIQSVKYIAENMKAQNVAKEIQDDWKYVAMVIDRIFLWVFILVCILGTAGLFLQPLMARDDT
T1 sequence (P12392 21-495): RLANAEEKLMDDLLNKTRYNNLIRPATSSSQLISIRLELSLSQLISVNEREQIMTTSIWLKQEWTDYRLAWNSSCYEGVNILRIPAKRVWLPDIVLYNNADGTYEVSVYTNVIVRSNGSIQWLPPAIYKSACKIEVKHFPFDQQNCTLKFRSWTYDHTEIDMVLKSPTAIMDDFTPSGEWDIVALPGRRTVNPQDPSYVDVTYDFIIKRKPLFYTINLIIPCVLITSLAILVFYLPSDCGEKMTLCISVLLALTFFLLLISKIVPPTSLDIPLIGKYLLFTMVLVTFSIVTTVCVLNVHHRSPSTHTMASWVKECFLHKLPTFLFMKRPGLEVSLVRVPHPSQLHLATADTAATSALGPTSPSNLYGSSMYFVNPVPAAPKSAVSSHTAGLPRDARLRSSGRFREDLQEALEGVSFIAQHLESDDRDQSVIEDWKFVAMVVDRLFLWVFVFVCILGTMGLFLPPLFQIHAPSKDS
T2 sequence (Q07001 22-517): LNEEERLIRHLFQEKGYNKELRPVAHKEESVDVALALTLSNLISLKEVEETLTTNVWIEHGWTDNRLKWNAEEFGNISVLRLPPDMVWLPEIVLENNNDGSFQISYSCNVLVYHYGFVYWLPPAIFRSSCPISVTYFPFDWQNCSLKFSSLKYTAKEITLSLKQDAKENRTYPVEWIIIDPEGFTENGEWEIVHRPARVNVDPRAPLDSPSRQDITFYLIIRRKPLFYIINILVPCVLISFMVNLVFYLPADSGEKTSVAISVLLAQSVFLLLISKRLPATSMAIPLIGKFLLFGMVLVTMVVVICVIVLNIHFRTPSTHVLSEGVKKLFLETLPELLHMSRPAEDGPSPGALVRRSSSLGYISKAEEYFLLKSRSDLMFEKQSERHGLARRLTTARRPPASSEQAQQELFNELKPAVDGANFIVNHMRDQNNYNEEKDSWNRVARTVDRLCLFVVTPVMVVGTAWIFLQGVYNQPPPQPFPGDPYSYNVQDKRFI
T2 sequence (P07510 23-517): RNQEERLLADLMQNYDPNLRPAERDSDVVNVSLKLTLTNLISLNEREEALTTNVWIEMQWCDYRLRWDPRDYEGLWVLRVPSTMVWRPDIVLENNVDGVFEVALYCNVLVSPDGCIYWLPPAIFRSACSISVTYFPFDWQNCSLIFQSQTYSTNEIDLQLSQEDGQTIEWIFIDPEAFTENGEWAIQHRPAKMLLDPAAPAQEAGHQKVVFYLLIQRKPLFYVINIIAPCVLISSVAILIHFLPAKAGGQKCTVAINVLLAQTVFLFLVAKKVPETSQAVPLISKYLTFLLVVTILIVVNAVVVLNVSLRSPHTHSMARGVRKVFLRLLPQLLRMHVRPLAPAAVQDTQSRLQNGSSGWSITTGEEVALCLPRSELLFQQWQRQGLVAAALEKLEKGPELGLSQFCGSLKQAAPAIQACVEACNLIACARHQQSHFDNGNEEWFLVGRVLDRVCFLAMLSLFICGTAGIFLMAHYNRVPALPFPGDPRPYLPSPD
T2 sequence (P11230 24-501, further chain): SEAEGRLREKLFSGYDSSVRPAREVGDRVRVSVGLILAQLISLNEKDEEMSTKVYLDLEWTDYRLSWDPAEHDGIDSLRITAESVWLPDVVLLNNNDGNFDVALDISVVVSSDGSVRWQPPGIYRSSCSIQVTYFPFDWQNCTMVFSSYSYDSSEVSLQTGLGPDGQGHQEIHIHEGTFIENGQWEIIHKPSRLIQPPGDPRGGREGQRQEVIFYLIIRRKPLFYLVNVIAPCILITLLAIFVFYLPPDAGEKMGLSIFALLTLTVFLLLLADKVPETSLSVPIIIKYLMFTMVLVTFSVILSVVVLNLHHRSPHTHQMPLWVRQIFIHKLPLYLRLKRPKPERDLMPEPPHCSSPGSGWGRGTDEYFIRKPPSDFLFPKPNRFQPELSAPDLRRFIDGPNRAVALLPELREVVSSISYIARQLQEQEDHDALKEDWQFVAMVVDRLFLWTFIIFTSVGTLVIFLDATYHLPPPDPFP
T2 sequence (P02708 21-457): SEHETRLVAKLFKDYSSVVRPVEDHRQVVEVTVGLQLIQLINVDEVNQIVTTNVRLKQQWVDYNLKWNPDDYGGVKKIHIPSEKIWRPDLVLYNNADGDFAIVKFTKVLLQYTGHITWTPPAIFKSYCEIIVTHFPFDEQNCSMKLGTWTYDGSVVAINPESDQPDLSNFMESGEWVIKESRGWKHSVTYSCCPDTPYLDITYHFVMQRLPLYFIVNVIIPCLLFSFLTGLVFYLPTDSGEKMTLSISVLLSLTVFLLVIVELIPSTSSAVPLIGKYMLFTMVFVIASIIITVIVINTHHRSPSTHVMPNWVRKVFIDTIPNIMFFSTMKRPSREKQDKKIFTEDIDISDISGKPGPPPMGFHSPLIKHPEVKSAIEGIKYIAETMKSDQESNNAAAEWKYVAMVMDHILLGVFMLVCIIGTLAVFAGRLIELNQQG

Structure (SMILES) | Ki (nicotinic receptors) | EC50 [1] | Receptor Activation Emax [1] | EC50 [2] | Dopamine Release Emax [2] | Emax ([3]; PC-12, read-out: Ganglion Effect Emax) | EC50 [4] | Ganglion Effect Emax [3]
CCOc1cncc(/C=C/CCNC)c1 [Sample No. 1, (E)-N-methyl-4-[3-(5-ethoxypyridin)yl]-3-buten-1-amine] | 9 nM | 269 nM | 67% | 287 nM | 124% | 0% | – | –
CNCC/C=C/c1cccnc1 [Sample No. C-2, (E)-metanicotine, reference compound] | – | 732 nM | 79% | 1160 nM | 81% | – | – | –
CN1CCC[C@H]1c1cccnc1 [Sample No. C-1, (S)--(-)--nicotine, reference compound] | – | – | 87% | 100 nM | 100% | – | 80000 nM | –
CNCC/C=C/c1cncc(OC)c1 [Sample No. 3, (E)-N-methyl-4-[3-(5-methoxypyridin)yl]-3-buten-1-amine] | 7 nM | 470 nM | 62% | 2340 nM | 106% | – | – | 0%
CNC(C)C/C=C/c1cccnc1 (centres unmarked) [Sample No. 2, (E)-N-methyl-5-(3-pyridinyl)-4-penten-2-amine] | 82 nM | 1700 nM | 35% | 21400 nM | 182% | – | – | 6%
